Measured values reported in US20040248775A1, “Methods for screening inhibitors of apoptosis” (Wyeth, priority 2003, published 2004).

Molecular target: T1, wild-type NALP1 (Homo sapiens, UniProt Q9C000)
T1 construct: to generate full-length NALP1 in frame with EGFP; expressed in transfected cells; host or cells: HeLa cells, transient transfection with the pEGFP-N3 based plasmid; S-100 extract used
T1 sequence (Q9C000 1-1473): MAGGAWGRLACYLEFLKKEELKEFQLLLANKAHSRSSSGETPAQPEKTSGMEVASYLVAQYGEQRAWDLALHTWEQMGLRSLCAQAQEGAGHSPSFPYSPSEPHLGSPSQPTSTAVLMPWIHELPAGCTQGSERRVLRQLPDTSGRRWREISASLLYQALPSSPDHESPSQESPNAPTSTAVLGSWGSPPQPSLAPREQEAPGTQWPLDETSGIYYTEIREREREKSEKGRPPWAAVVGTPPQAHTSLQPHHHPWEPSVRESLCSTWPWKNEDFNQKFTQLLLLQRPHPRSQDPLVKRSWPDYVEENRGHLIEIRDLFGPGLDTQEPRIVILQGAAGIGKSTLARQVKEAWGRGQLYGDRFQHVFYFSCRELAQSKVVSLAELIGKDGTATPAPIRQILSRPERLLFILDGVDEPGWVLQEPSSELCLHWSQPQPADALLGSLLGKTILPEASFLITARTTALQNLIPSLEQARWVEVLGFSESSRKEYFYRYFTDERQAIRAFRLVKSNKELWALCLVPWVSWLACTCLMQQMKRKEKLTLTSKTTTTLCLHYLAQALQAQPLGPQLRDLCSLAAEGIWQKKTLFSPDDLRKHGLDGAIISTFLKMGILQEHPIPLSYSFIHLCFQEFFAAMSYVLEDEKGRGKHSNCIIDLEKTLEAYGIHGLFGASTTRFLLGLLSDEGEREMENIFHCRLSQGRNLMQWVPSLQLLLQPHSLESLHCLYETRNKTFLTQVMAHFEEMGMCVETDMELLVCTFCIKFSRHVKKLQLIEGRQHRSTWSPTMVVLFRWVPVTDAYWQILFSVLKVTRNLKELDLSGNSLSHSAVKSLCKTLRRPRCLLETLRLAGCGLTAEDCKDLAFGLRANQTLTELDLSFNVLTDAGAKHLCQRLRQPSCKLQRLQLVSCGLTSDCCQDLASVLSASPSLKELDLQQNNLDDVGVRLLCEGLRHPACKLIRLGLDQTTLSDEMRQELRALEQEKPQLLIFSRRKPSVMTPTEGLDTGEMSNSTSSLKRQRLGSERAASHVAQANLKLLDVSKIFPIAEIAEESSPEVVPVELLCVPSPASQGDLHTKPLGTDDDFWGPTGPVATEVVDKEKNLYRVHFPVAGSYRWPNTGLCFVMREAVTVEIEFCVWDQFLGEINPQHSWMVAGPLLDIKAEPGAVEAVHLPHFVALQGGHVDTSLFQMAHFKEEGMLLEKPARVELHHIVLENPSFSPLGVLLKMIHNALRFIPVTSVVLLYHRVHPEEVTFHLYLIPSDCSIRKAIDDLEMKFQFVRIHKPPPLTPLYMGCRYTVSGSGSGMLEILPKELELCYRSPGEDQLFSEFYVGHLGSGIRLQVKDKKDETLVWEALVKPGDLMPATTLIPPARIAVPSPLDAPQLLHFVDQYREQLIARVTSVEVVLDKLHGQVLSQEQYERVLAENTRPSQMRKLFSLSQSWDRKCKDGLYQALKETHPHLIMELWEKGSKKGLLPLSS
Assay: Fluorimetric DEVDase (caspase-3) assay in HeLa cell extracts expressing wild-type NALP1-EGFP
Format: biochemical
Details: 2 mM dATP, 2 mM MgCl2, 1 hour, Ac-DEVD-AMC substrate
Method: Cell extract preparation and fluorimetric assay of caspase activity. Preparation of cell extracts, dATP incubation and caspase-3 activities assays were performed as described by Liu et al. (1996). Briefly, HeLa cells were grown in DMEM, 10% FBS. Cells were plated in T175 flasks to 60% confluence. Control vector pEGFP or wild-type or NBS mutant NALP1-EGFP expression plasmids were transfected into HeLa cells using Lipofectamine Plus. Cells were collected in homogenization buffer (20 mM HEPES pH 7.5, 10 mM KCl, 1 mM sodium EDTA, […], 1 mM sodium EGTA, 0.1% CHAPS, 1 mM DTT, 0.1 mM PMSF and protease inhibitor cocktail tablets (Roche)), 24 hours after transfection. Cells were chilled on ice for 15 minutes and homogenized by douncing 30 times in a glass douncer. Samples were centrifuged at 1000×g for 10 minutes at 4° C. […] After 2 hours incubation, liberation of AMC (7-amino-4-methylcoumarin) from the substrate was monitored using excitation/emission wavelength pairs (λex/λem) of 380/460 nm using a SpectraFluor Plus instrument (Tecan). Triplicate samples were evaluated with or without specific inhibitors. […] Normalized data from multiple experiments were expressed as means±standard deviation. For each experiment, the expression of EGFP-tagged NALP1 proteins was analyzed by anti-GFP immunoblot and quantified by densitometry.

## Nc1ncnc2c1ncn2[C@H]1C[C@H](O)[C@@H](COP(=O)(O)OP(=O)(O)OP(=O)(O)O)O1 [dATP]
  DEVDase activity, extracts with wild-type NALP1: significantly elevated
